US5177082A, “Huperzines and analogs” (priority 1990, dated 1993)
Where two headings read alike, the source gives them in different places.

Experiments:
Fetus of Pregnant Mice = settings: mouse, in vivo
From the text: […]. […] The latter produced various types of externally observed deformities: short tails (44/97), short and no tails (18/97), back legs reversed (13/97), open eyes (7/97), exposed brains and spina bifida (1/97), sunken noses (1/97) and cleft palates (39/40). […].

memory functions of rats = assay: Memory function of preconditioned rats after 48 hours; type: in vivo, rat
Experimental: To evaluate the impact on the memory function, preconditioned animals going through 5 shock-free runs were used as learned animals. After 48 hours the drug-free (control) animals required 14.4±8.9 shocks to become learned.

Rats = settings: rat, in vivo

C/C=C1\[C@H]2C=C(C)C[C@]1(N)c1ccc(=O)[nH]c1C2 [Huperzine A, (5R, 9R, 11E)-5-amino-11-ethylidene-5,6,9,10-tetrahydro-7-methyl-5,9-methanocycloocta[b]pyridin-2(1H)-one]
number of embryo absorptions and stillborn fetuses vs control (Fetus of Pregnant Mice): markedly greater than those of the control group | abnormal embryos (Fetus of Pregnant Mice; ip): Neither of the two methods of giving the drug resulted in abnormal embryos | Body length of fetus (Fetus of Pregnant Mice; ip, 0.019 mg/kg): 2.2 ± 0.3 cm | Body weight of fetus (Fetus of Pregnant Mice; ip, 0.019 mg/kg): 1.24 ± 0.22 g | Number absorbed (Fetus of Pregnant Mice; ip, 0.019 mg/kg): 1.0 ± 1.7 | Number of fetuses (Fetus of Pregnant Mice; ip, 0.019 mg/kg): 8 ± 3 | number of stillbirths (Fetus of Pregnant Mice; ip, 0.019 mg/kg): 0.22 ± 0.44 | Body length of fetus (Fetus of Pregnant Mice; ip, 0.038 mg/kg): 2.2 ± 0.3 cm | Body weight of fetus (Fetus of Pregnant Mice; ip, 0.038 mg/kg): 1.2 ± 0.2 g | Number absorbed (Fetus of Pregnant Mice; ip, 0.038 mg/kg): 0.5 ± 0.8 | Number of fetuses (Fetus of Pregnant Mice; ip, 0.038 mg/kg): 8 ± 2 | number of stillbirths (Fetus of Pregnant Mice; ip, 0.038 mg/kg): 0.22 ± 0.44 | Body length of fetus (Fetus of Pregnant Mice; ip, 0.08 mg/kg): 2.3 ± 0.1 cm | Body weight of fetus (Fetus of Pregnant Mice; ip, 0.08 mg/kg): 1.2 ± 0.1 g | Number absorbed (Fetus of Pregnant Mice; ip, 0.08 mg/kg): 0 | Number of fetuses (Fetus of Pregnant Mice; ip, 0.08 mg/kg): 9 ± 2 | number of stillbirths (Fetus of Pregnant Mice; ip, 0.08 mg/kg): 0.17 ± 0.39 | Body length of fetus (Fetus of Pregnant Mice; ip, 0.19 mg/kg): 2.1 ± 0.2 cm | Body weight of fetus (Fetus of Pregnant Mice; ip, 0.19 mg/kg): 1.0 ± 0.2 g | Number absorbed (Fetus of Pregnant Mice; ip, 0.19 mg/kg): 0.73 ± 1.7 | Number of fetuses (Fetus of Pregnant Mice; ip, 0.19 mg/kg): 9 ± 4 | number of stillbirths (Fetus of Pregnant Mice; ip, 0.19 mg/kg): 0.13 ± 0.35 | Body length of fetus (Fetus of Pregnant Mice; ip, 0.38 mg/kg): 2.0 ± 0.3 cm | Body weight of fetus (Fetus of Pregnant Mice; ip, 0.38 mg/kg): 1.1 ± 0.3 g | Number absorbed (Fetus of Pregnant Mice; ip, 0.38 mg/kg): 2.1 ± 2.4 | Number of fetuses (Fetus of Pregnant Mice; ip, 0.38 mg/kg): 6 ± 4 | number of stillbirths (Fetus of Pregnant Mice; ip, 0.38 mg/kg): 0.8 ± 1.1 | Body length of fetus (Fetus of Pregnant Mice; ip, 0.39 mg/kg): 1.9 ± 0.1 cm | Body weight of fetus (Fetus of Pregnant Mice; ip, 0.39 mg/kg): 0.95 ± 0.18 g | Number absorbed (Fetus of Pregnant Mice; ip, 0.39 mg/kg): 0.75 ± 1.0 | Number of fetuses (Fetus of Pregnant Mice; ip, 0.39 mg/kg): 8 ± 4 | number of stillbirths (Fetus of Pregnant Mice; ip, 0.39 mg/kg): 0.9 ± 1.1 | shocks required to achieve the learned state (memory) (memory functions of rats; 0.03 mg/kg, ip, after 48 hours): 6.8±7.2 shocks | memory functions (Y-maze and brightness discrimination test) (memory functions of rats; normal male rats, 1/138 of the LD50 dosage): can strengthen the memory functions | Toxic Strength (Rats): 1.00
